Experimental data taken from publication PMC12519461 (ACS Infectious Diseases, 2025).
Like-named read-outs stand apart in the source and are kept apart here.

Columns and labels:
in vitro = assay type: cell-based; conditions: L4 larvae, up to 1000 μM, read-out: C. elegans LC50
Method: Synchronized fourth-stage (L4) C. elegans larvae were distributed into 96-well plates containing M9 buffer (60 larvae/well). […] After 24 h incubation at 21 °C, larval survival was determined by motility: larvae unresponsive to gentle mechanical stimulation were classified as nonviable. […] Assays were performed in triplicate and repeated three times.

[1] = Cytotoxicity in HaCat cells (MTT, 72 h); assay type: cell-based; conditions: human, from 500 μM
Method: Cytotoxicity was assessed using the MTT assay. After 72 h, MTT solution was added, followed by 3 h of incubation. Absorbance was measured at 595 nm using an Epoch Microplate Spectrophotometer (BioTek Instruments, Winooski, VT, USA). Assays were performed in triplicate and repeated three times.

A. cantonensis L1 larvae = assay: Anthelmintic activity against A. cantonensis first-stage larvae (motility/viability, 24 h); assay type: cell-based, Angiostrongylus cantonensis; conditions: for activity against the larvae (in words): A. cantonensis larvae in vitro; for EC50: 24 h, read-out: A. cantonensis EC50 (μM ± SEM) L1
Method: (§1) Larvae were washed three times in RPMI 1640 medium supplemented with 100 U/mL penicillin and 100 μg/mL streptomycin. Approximately 50 larvae were allocated into individual wells of a 96-well plate containing 200 μL of final volume of RPMI medium. […] Approximately 50 larvae were transferred to each well of a 96-well plate containing RPMI medium. […] Larval viability was monitored at 0 and 24 h post-treatment. […] Assays were performed in triplicate and repeated three times.

A. cantonensis L3 larvae = assay: Anthelmintic activity against A. cantonensis infective third-stage larvae (motility/viability, 24 h); assay type: cell-based, Angiostrongylus cantonensis; conditions: in vitro, 21 °C, read-out: A. cantonensis EC50 (μM ± SEM) L3
Method: as §1

[2] = Angiostrongylus cantonensis, first-stage larvae (L1), in vitro, 21 °C
[3] = first-stage larvae (L1), in vitro, 21 °C

With `C(=C\c1ccccc1)/CN1CCN(Cc2ccccc2)CC1` [compound 1a, 1-Benzyl-4-[(E)-cinnamyl]piperazine] the LC50 at 24 h (in vitro) was over 1000 µM, the CC50 at 72 h ([1]; HaCat cells) was over 500 µM and the “activity against the larvae (in words)” value (A. cantonensis L1 larvae) was “no appreciable activity”. It also gave an EC50 (A. cantonensis L1 larvae; [2]) of over 100 µM.

With `Clc1ccc(CN2CCN(C/C=C/c3ccccc3)CC2)cc1` [compound 2a, 1-[(4-Chlorophenyl)methyl]-4-[(E)-cinnamyl]piperazine] the LC50 at 24 h (in vitro) was over 1000 µM, the CC50 at 72 h ([1]; HaCat cells) was over 500 µM and the “activity against the larvae (in words)” value (A. cantonensis L1 larvae) was “no appreciable activity”. For the same compound, the EC50 (A. cantonensis L1 larvae; [2]) was over 100 µM.

`O=C(/C=C/c1ccccc1)N1CCN(Cc2ccccc2)CC1` [compound 3a, (E)-1-(4-Benzylpiperazin-1-yl)-3-phenyl-prop-2-en-1-one] gave an LC50 at 24 h (in vitro) of over 1000 µM, a CC50 at 72 h ([1]; HaCat cells) of over 500 µM and an EC50 (A. cantonensis L1 larvae; [2]) of 8.2 µM. For the same compound, the EC50 (A. cantonensis L1 larvae; [3]) was 8.7 ± 1.1 µM and the EC50 (A. cantonensis L3 larvae; Angiostrongylus cantonensis) was 18.1 ± 1.5 µM.

`COc1ccc(/C=C/CN2CCN(C(c3ccccc3)c3ccc(Cl)cc3)CC2)cc1` (stereo not shown) [compound 2b, 1-[(4-Chlorophenyl)-phenyl-methyl]-4-[(E)-3-(4-methoxyphenyl)allyl]piperazine] showed an LC50 at 24 h (in vitro) of over 1000 µM, a CC50 at 72 h ([1]; HaCat cells) of over 500 µM and an EC50 (A. cantonensis L1 larvae; [2]) of 8.2 to 9.3 µM. The EC50 (A. cantonensis L1 larvae; [3]) was 9.3 ± 0.9 µM, the EC50 (A. cantonensis L3 larvae; Angiostrongylus cantonensis) was 8.2 to 9.3 µM and the EC50 (A. cantonensis L3 larvae) was 8.8 ± 1.2 µM.

`C(=C\c1ccccc1)/CN1CCN(C(c2ccccc2)c2ccccc2)CC1` [compound 1, cinnarizine, reference compound] gave an LC50 at 24 h (in vitro) of over 1000 µM.

Compound `COc1cc(/C=C/C(=O)N2CCN(C(c3ccccc3)c3ccccc3)CC2)ccc1O` [compound 3d, (E)-1-(4-Benzhydrylpiperazin-1-yl)-3-(4-hydroxy-3-methoxy-phenyl)prop-2-en-1-one] has an LC50 at 24 h (in vitro) of over 1000 µM, a CC50 at 72 h ([1]; HaCat cells) of over 500 µM and an EC50 (A. cantonensis L1 larvae; [2]) of over 100 µM.

With `CCCSc1ccc2nc(NC(=O)OC)[nH]c2c1` [albendazole, reference compound] the LC50 at 24 h (in vitro) was 14.8 ± 1.5 µM, the CC50 at 72 h [1] was over 500 µM and the EC50 (A. cantonensis L1 larvae; Angiostrongylus cantonensis) was 14.2 ± 1.1 µM.

In the case of `O=C(/C=C/c1ccccc1)N1CCN(C(c2ccccc2)c2ccccc2)CC1` [compound 3, (E)-1-(4-Benzhydrylpiperazin-1-yl)-3-phenyl-prop-2-en-1-one], the LC50 at 24 h (in vitro) is reported as over 1000 µM, the CC50 at 72 h ([1]; HaCat cells) is reported as over 500 µM and the “activity against the larvae (in words)” value (A. cantonensis L1 larvae) is reported as “no activity”. The EC50 (A. cantonensis L1 larvae; [2]) was over 100 µM.

For `COc1ccc(/C=C/CN2CCN(C(c3ccccc3)c3ccccc3)CC2)cc1` [compound 1b, 1-Benzhydryl-4-[(E)-3-(4-methoxyphenyl)allyl]piperazine], the LC50 at 24 h (in vitro) was over 1000 µM, the CC50 at 72 h ([1]; HaCat cells) was over 500 µM and the EC50 (A. cantonensis L1 larvae; [2]) was 8.2 to 9.3 µM. The EC50 (A. cantonensis L1 larvae; [3]) was 8.2 ± 1.2 µM, the EC50 (A. cantonensis L3 larvae; Angiostrongylus cantonensis) was 8.2 to 9.3 µM and the EC50 (A. cantonensis L3 larvae) was 8.7 ± 0.9 µM.

`Clc1ccc(C(c2ccccc2)N2CCN(C/C=C/c3ccccc3)CC2)cc1` (stereo not shown) [compound 2, 1-[(4-Chlorophenyl)-phenyl-methyl]-4-[(E)-cinnamyl]piperazine, reference compound] showed an LC50 at 24 h (in vitro) of over 1000 µM, a CC50 at 72 h ([1]; HaCat cells) of over 500 µM and an EC50 (A. cantonensis L1 larvae; [2]) of 4.2 ± 1.1 µM. The EC50 (A. cantonensis L3 larvae; Angiostrongylus cantonensis) was 8.6 ± 1.1 µM.

For `O=C(/C=C/c1ccc(O)c(O)c1)N1CCN(C(c2ccccc2)c2ccccc2)CC1` [compound 3e, (E)-1-(4-Benzhydrylpiperazin-1-yl)-3-(3,4-dihydroxyphenyl)prop-2-en-1-one], the LC50 at 24 h (in vitro) was over 1000 µM, the CC50 at 72 h ([1]; HaCat cells) was over 500 µM and the EC50 (A. cantonensis L1 larvae; [2]) was over 100 µM.

`O=C(/C=C/c1ccc(O)cc1)N1CCN(C(c2ccccc2)c2ccccc2)CC1` [compound 3c, (E)-1-(4-Benzhydrylpiperazin-1-yl)-3-(4-hydroxyphenyl)prop-2-en-1-one] gave an LC50 at 24 h (in vitro) of over 1000 µM, a CC50 at 72 h ([1]; HaCat cells) of over 500 µM and an EC50 (A. cantonensis L1 larvae; [2]) of over 100 µM.

Compound `COc1ccc(/C=C/C(=O)N2CCN(C(c3ccccc3)c3ccccc3)CC2)cc1` [compound 3b, (E)-1-(4-Benzhydrylpiperazin-1-yl)-3-(4-methoxyphenyl)prop-2-en-1-one] has an LC50 at 24 h (in vitro) of over 1000 µM, a CC50 at 72 h ([1]; HaCat cells) of over 500 µM and an EC50 (A. cantonensis L1 larvae; [2]) of over 100 µM.
